Test results taken from US9353087B2, “Inhibitors of Bruton's tyrosine kinase” (Biogen Idec MA Inc., priority 2012, dated 2016).
Like-named read-outs stand apart in the source and are kept apart here.

Experiments:
BTK = target: T1, BTK (Homo sapiens, UniProt Q06187); test: In vitro BTK kinase assay: BTK-POLYGAT-LS assay; assay type: biochemical; settings: ATP 10 uM, polyGAT 100 nM, BTK 0.25 nM, 30 minutes
T1 construct: purchased Upstate 14-552
Method: In vitro BTK kinase assay: BTK-POLYGAT-LS ASSAY. The purpose of the BTK in vitro assay was to determine compound potency against BTK through the measurement of IC50. Compound inhibition was measured after monitoring the amount of phosphorylation of a fluorescein-labeled polyGAT peptide (Invitrogen PV3611) in the presence of active BTK enzyme (Upstate 14-552), ATP, and inhibitor. The BTK kinase reaction was done in a black 96 well plate (costar 3694). For a typical assay, a 24 uL aliquot of an ATP/peptide master mix (final concentration; ATP 10 uM, polyGAT 100 nM) in kinase buffer (10 mM Tris-HCl pH 7.5, 10 mM MgCl2, 200 uM […], 5 mM DTT, 0.01% Triton X-100, and 0.2 mg/ml casein) was added to each well. Next, 1 uL of a 4-fold, 40× compound titration in 100% DMSO solvent was added, followed by adding 15 uL of BTK enzyme mix in 1× kinase buffer (with a final concentration of 0.25 nM). The assay was incubated for 30 minutes before being stopped with 28 uL of a 50 mM EDTA solution. Aliquots (5 uL) of the kinase reaction were transferred to a low volume white 384 well plate (Corning 3674), and 5 uL of a 2× detection buffer (Invitrogen PV3574, with 4 nM Tb—PY20 antibody, Invitrogen PV3552) was added. […] Time resolved fluorescence (TRF) on Molecular Devices M5 (332 nm excitation; 488 nm emission; 518 nm fluorescein emission) was measured.

[1] = target: T2, hERG (human ether-à-go-go-related gene) potassium channel (Homo sapiens, UniProt Q12809); test: FastPatch/QPatch hERG inhibition assay in HEK293 cells; assay type: cell-based; settings: HEK293 cells stably transfected with hERG cDNA, QPatch HT, IC50 estimated from hERG inhibition data
T2 construct: host or cells: HEK293
From the text: The in vitro effects of provided compounds was investigated on the hERG (human ether-à-go-go-related gene) potassium channel current (a surrogate for IKr, the rapidly activating, delayed rectifier cardiac potassium current) expressed in human embryonic kidney (HEK293) cells stably transfected with hERG cDNA. Cells were placed in HEPES-buffered physiological saline solution in a glass-lined 96-well plate and loaded with appropriate amounts of test and control solutions for a duration of a 3-minute exposure at each concentration. Test compound was diluted in 0.3% DMSO. An automated parallel patch clamp system, QPatch HT (Sophion Bioscience A/S, Denmark), was used to evaluate at various concentrations (e.g., 10 μM). The IC50 values were estimated based on the hERG inhibition data. The study was performed at ChanTest (14656 Neo Parkway, Cleveland, Ohio). The QPatch screen is further described by Janzen and Bernasconi (eds.), High Throughput Screening, Methods and Protocols, Second Edition, vol. 565, chapter 10, pg. 209-223, 2009.

[2] = tested on: collagen induced arthritis (CIA) in female Lewis rats; test: Rat collagen-induced arthritis model; assay type: in vivo; settings: oral gavage BID, therapeutic administration, read-out: Ankle histiopathology ED50
From the text: The collagen induced arthritis (CIA) model in female Lewis rats requires primary T and B cell immune responses to type II collagen (CII) immunization for the development of a severe inflammatory disease (see Goldschmidt T J, Holmdahl R. Cell Immunol. 154(1):240-8, 1994; Helfgott, S. M., et al; Clin. Immunol. Immunopathol. 31:403, 1984; Holmdahl R. et al., J Autoimmun. 7(6):739-52, 1994; and Stuart, J. M., et al., J. Exp. Med. 155:1, 1982). Clinical disease onsets after a secondary CII challenge and the disease progresses over the following eight days.
Generally, female Lewis rats were immunized with bovine collagen type II in incomplete Freund's adjuvant. […] Clinical severity of arthritis was assessed by caliper measurements of ankles taken every day beginning on […].
Detailed protocol: Female Lewis rats were immunized subcutaneously with bovine collagen type II (1:1 emulsion of 2 mg/ml bovine CII in 0.01 N acetic acid: Incomplete Freund's Adjuvant) at three sites of back skin. […] Clinical severity of CIA was assessed by caliper measurements of ankles taken every day beginning on Day 9. […] Baseline ankle caliper measurements for established disease animals was assessed on day 1 of therapeutic dosing and animals were randomly assigned to treatment groups after confirmation of clinically disease onset (0.2751-0.2755 in). […]

[3] = tested on: PLCγ2 phosphorylation in Ramos cells; test: BCR pathway activation: inhibition of phosphorylation of PLCγ2 in Ramos cells (electrochemiluminescence immunoassay); assay type: cell-based; settings: Homo sapiens, 2 hours compound, 10 μg/mL anti-IgM for 5 minutes, R^2=0.90
Method: Protocol: One day before treatment, Ramos cells were plated at a density of 3×10^5 cells per well in 200 μl, of complete medium in a 96-well tissue culture filter plates (Millipore, Billerica, Mass.). On the day of treatment, used medium was removed by filtration and the cells re-suspended in 200 μL serum free medium containing serial compound dilutions and DMSO to 0.1%, then incubated for 2 hours at 37° C. Cells were stimulated for 5 minutes with 10 μg/mL goat anti-human IgM at 37° C. […] After washing with TBST, MSD read buffer was added and the luminescence was measured in an MSD SECTOR Imager 6000. Maximum response was determined as the average luminescence in wells containing stimulated cells treated with anti-IgM and DMSO. Minimal response was determined as the average luminescence in wells containing unstimulated cells treated with DMSO alone. The maximal and minimal values were used to normalize luminescence in compound treatment wells. The normalized values were plotted against compound concentration on a log scale then analyzed using Prizm software (GraphPad Software, Inc.). […]

Human CD19+ B cells = test: Inhibition of BCR (anti-IgM)-induced human B cell proliferation; assay type: cell-based; settings: human CD19+ B cells from different donors, 10 μg/ml anti-IgM, 72 hours, CellTiter-Glo, read-out: IC50, anti-IgM-induced B cell cellular metabolism (proliferation)
Method: In this context, cellular metabolism directly correlates with cellular activation and proliferation, and can also reflect relative cell survival during proliferation. […] The results are shown graphically in FIG. 6.
Protocol: Human B cells were isolated from peripheral blood mononuclear cells or unpurified buffy coats using Ficoll-Hypaque gradients (Amersham) and negatively selected by magnetic cell sorting (Human B Cell Isolation Kit II, Miltenyi Biotec). Target cell purity was determined by flow cytometry by staining for markers of B cells, T cells and monocytes (CD19, CD3, CD14, respectively; BD Biosciences). Data was collected on a FACsCaliber flow cytometer and analyzed using FloJo software (BD Biosciences). […] Negatively selected human B cells were stimulated with 10 μg/mL anti-IgM F(ab′)2 (Jackson ImmunoResearch) in 96 well plates. […] B cells were stimulated for 72 hr at 37° C., 5% CO2. Proliferation was measured using the CellTiter-Glo reagent (Promega), as measured on a luminometer. Mean values were plotted against maximum proliferation and IC50 values were determine using GraphPad Prism v5 software.

[4] = tested on: TNFα expression by FcγR-activated primary human macrophages; test: FcγR activation of primary human macrophages: TNFα expression; assay type: cell-based; settings: Macrophage, human monocyte derived macrophages, plate-bound IgG
From the text: (§1) FcγR activation of primary human macrophages. Autoantibody and immune-complex mediated activation through FcγR can be modeled by activation of macrophages with immobilized IgG. Primary human macrophages derived from GM-CSF treated monocytes up-regulate activation markers such as CD80, CD86, MHC antigens and the FcγRIII receptor. Human monocyte derived macrophages can be activated by plate-bound purified human IgG. This stimulation crosslinks the FcγRIII receptor and induces the secretion of pro-inflammatory cytokines such as TNFα, IL-6, IL 1β and MCP-1.
(§2) Generally, macrophages were cultured in plates previously incubated with purified IgG then washed. […] Cell culture supernatants were analyzed by ELISA for the expression of TNFα and IL-6.
(§3) Protocol: Human monocytes were isolated from buffy coats of healthy donors and negatively selected by magnetic cell sorting (Monocyte Isolation Kit II, Miltenyi Biotec). Purified monocytes were cultured in standard media supplemented with low-IgG FBS and 100 ng/mL GM-CSF for 5-7 days to induce macrophage differentiation. […] Supernatants were collected after 4 hrs and 18 hrs and analyzed for TNFα and IL-6, respectively.

[5] = tested on: IL-6 expression by FcγR-activated primary human macrophages; test: FcγR activation of primary human macrophages: IL-6 expression; assay type: cell-based; settings: Macrophage, human monocyte derived macrophages, plate-bound IgG
From the text: as §1, §2, §3

T1 sequence (Q06187 whole entry): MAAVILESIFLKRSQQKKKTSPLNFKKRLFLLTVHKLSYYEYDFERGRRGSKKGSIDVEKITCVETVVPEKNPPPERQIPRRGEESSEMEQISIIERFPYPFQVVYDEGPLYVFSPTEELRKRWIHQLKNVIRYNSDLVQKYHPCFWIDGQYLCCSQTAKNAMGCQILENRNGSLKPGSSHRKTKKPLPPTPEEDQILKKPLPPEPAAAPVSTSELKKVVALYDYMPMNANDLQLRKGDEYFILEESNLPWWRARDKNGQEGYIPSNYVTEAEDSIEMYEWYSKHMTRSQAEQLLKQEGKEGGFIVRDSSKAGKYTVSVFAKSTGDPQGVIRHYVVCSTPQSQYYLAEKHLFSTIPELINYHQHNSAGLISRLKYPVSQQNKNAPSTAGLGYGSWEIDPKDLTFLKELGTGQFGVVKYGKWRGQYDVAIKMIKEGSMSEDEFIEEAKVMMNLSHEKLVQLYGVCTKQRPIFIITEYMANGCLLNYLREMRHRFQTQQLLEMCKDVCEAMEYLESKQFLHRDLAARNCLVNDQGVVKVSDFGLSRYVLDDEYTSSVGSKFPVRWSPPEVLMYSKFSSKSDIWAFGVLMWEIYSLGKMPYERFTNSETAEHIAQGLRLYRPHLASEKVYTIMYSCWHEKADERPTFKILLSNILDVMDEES
T2 sequence (Q12809 whole entry): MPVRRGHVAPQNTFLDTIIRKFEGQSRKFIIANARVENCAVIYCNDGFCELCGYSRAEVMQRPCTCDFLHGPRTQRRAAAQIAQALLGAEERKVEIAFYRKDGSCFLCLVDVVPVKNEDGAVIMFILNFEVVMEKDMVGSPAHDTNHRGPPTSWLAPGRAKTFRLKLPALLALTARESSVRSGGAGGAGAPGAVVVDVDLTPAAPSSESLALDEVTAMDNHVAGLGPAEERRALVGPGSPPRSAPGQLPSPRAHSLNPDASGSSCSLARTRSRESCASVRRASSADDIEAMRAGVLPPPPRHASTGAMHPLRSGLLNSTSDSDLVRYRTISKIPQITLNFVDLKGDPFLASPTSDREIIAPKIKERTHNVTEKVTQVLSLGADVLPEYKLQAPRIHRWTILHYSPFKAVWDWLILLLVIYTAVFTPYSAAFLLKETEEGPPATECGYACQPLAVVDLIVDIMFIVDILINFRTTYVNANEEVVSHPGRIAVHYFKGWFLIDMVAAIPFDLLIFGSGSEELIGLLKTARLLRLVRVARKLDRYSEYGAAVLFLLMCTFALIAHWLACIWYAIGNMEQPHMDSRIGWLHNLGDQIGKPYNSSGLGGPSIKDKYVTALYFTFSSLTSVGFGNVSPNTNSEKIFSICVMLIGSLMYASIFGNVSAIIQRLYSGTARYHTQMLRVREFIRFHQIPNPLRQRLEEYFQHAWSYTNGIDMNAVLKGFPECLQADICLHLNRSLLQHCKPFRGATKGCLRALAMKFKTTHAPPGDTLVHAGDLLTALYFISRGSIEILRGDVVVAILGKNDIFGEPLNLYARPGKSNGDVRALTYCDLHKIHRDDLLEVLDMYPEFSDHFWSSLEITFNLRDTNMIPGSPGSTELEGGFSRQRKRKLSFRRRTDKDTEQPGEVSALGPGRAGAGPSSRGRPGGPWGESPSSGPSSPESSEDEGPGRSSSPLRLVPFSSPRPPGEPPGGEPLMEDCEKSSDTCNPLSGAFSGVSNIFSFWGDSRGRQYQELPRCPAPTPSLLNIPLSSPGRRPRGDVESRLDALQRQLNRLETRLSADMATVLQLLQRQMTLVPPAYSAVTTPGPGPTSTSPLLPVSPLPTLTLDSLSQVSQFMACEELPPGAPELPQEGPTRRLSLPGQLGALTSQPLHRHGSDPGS

IC50 (BTK): 1.97 nM
EC50 [3]: 150 nM
IC50 ([4]; ELISA (FIG. 7A), read-out: IC50 for inhibition of TNFα): 1080 nM
IC50 ([4]; supernatants after 4 hrs, ELISA, read-out: IC50, inhibition of TNFα expression): 1100 nM
IC50 ([5]; ELISA (FIG. 7B), read-out: IC50 for inhibition of IL-6): 350 nM
IC50 ([5]; supernatants after 18 hrs, ELISA, read-out: IC50, inhibition of IL-6 expression): 350 nM
SMILES: Nc1ncnc(N2CC[C@H](O)[C@@H](N3CCC[C@@H](Nc4cc(Cl)cc(C(F)(F)F)c4)C3=O)C2)c1F [Compound I]
IC50 [1]: 9400 nM
ED50 [2]: 4.08 mg/kg
IC50 (Human CD19+ B cells): 260 nM
